Experimental data from ChEMBL document CHEMBL4359816, “Discovery and Optimization of Quinolinone Derivatives as Potent, Selective, and Orally Bioavailable Mutant Isocitrate Dehydrogenase 1 (mIDH1) Inhibitors” (J Med Chem, 2019).
≈ marks a conversion by molar mass, not a printed value.

Experiments:
[1] = Metabolic stability in human liver microsomes assessed as compound remaining after 30 mins; assay type: ADME, Microsome; settings: read-out: Stability
[2] = target: T1, Isocitrate dehydrogenase [NADP] cytoplasmic (Homo sapiens, UniProt O75874, R132C); test: Inhibition of IDH1 R132C mutant in human HCT116 cells assessed as reduction in 2-HG levels after 24 hrs by RapidFire high-throughput mass spectrometry assay; assay type: cell-based
[3] = Kinetic solubility of the compound; assay type: physicochemical; settings: read-out: Kinetic_solubility
[4] = target: T1, Isocitrate dehydrogenase [NADP] cytoplasmic; test: Inhibition of human Myc-DDK-tagged IDH1 R132C mutant assessed as reduction in NADPH consumption pre-incubated for 15 mins followed by alpha-ketoglutarate substrate and NADPH addition after 45 mins by diaphorase and resazurin dye based assay
[5] = Metabolic stability in rat liver microsomes assessed as compound remaining after 30 mins; assay type: ADME, Microsome; settings: read-out: Stability
[6] = Octanol/aqueous buffer partition coefficient, log D of the compound at pH 7.4; assay type: physicochemical
[7] = Metabolic stability in mouse liver microsomes assessed as compound remaining after 30 mins; assay type: ADME, Microsome; settings: read-out: Stability
[8] = system: MDR1 (P-gp); test: Efflux ratio of apparent permeability from basolateral side to apical side over apical side to basolateral side in MDCK cells harboring MDR1 (unknown origin) at 10 uM incubated for 2 hrs by LC-MS/MS analysis; assay type: ADME, cell-based, Canis lupus familiaris; settings: dog
[9] = Clearance in mouse at 1 mg/kg, iv or 5 mg/kg, po; assay type: ADME, organism-based; settings: in vivo
[10] = Protein binding in human plasma; assay type: ADME, cell-free; settings: read-out: PPB (converted)
[11] = Clearance in dog at 0.5 mg/kg, iv; assay type: ADME, organism-based, Canis lupus familiaris; settings: in vivo
[12] = Apparent permeability of the compound across basolateral side to apical side in human Caco2 cells; assay type: ADME, cell-based; settings: Caco-2
[13] = Protein binding in dog plasma; assay type: ADME, cell-free, Canis lupus familiaris; settings: read-out: PPB (converted)
[14] = fAUC (infinity) in mouse at 1 mg/kg, iv or 5 mg/kg, po; assay type: ADME, organism-based; settings: in vivo
[15] = Permeability of the compound by PAMPA; assay type: ADME; settings: read-out: permeability
[16] = Protein binding in rat plasma; assay type: ADME, cell-free; settings: read-out: PPB (converted)
[17] = Apparent permeability of the compound across apical side to basolateral side in human Caco2 cells; assay type: ADME, cell-based; settings: Caco-2
[18] = Half-life in human hepatocytes; assay type: ADME, cell-based, Hepatocyte
[19] = Half-life in rat at 1 mg/kg, iv or 5 mg/kg, po; assay type: ADME, organism-based; settings: in vivo
[20] = target: Isocitrate dehydrogenase [NADP] cytoplasmic (Homo sapiens, UniProt O75874, R132L); test: Inhibition of human Myc-DDK-tagged IDH1 R132L mutant expressed in human U87MG cells assessed as reduction in 2-HG levels after 24 hrs by RapidFire high-throughput mass spectrometry assay; assay type: cell-based
[21] = Half-life in mouse at 1 mg/kg, iv or 5 mg/kg, po; assay type: ADME, organism-based; settings: in vivo
[22] = Total AUC (infinity) in mouse at 1 mg/kg, iv or 5 mg/kg, po; assay type: ADME, organism-based; settings: in vivo
[23] = Intrinsic clearance in human hepatocytes; assay type: ADME, cell-based, Hepatocyte; settings: read-out: CLH
[24] = Total AUC (infinity) in rat at 1 mg/kg, iv or 5 mg/kg, po; assay type: ADME, organism-based; settings: in vivo
[25] = Oral bioavailability in rat at 5 mg/kg; assay type: ADME, organism-based; settings: in vivo
[26] = Half-life in dog at 0.5 mg/kg, iv; assay type: ADME, organism-based, Canis lupus familiaris; settings: in vivo
[27] = target: Isocitrate dehydrogenase [NADP] cytoplasmic (Homo sapiens, UniProt O75874, R132S); test: Inhibition of human Myc-DDK-tagged IDH1 R132S mutant expressed in human U87MG cells assessed as reduction in 2-HG levels after 24 hrs by RapidFire high-throughput mass spectrometry assay; assay type: cell-based
[28] = Total Cmax in mouse at 1 mg/kg, iv or 5 mg/kg, po; assay type: ADME, organism-based; settings: in vivo
[29] = Clearance in rat at 1 mg/kg, iv or 5 mg/kg, po; assay type: ADME, organism-based; settings: in vivo
[30] = target: Isocitrate dehydrogenase [NADP] cytoplasmic (Homo sapiens, UniProt O75874, R132G); test: Inhibition of human Myc-DDK-tagged IDH1 R132G mutant expressed in human U87MG cells assessed as reduction in 2-HG levels after 24 hrs by RapidFire high-throughput mass spectrometry assay; assay type: cell-based
[31] = target: T1, Isocitrate dehydrogenase [NADP] cytoplasmic; test: Inhibition of human Myc-DDK-tagged IDH1 R132C mutant expressed in human U87MG cells assessed as reduction in 2-HG levels after 24 hrs by RapidFire high-throughput mass spectrometry assay; assay type: cell-based
[32] = fAUC (infinity) in dog at 0.5 mg/kg, iv; assay type: ADME, organism-based, Canis lupus familiaris; settings: in vivo
[33] = Efflux ratio of apparent permeability from basolateral side to apical side over apical side to basolateral side in human Caco2 cells; assay type: ADME, cell-based; settings: Caco-2
[34] = Oral bioavailability in mouse at 5 mg/kg; assay type: ADME, organism-based; settings: in vivo
[35] = Cmax in rat at 1 mg/kg, iv or 5 mg/kg, po; assay type: ADME, organism-based; settings: in vivo
[36] = Total AUC (infinity) in dog at 0.5 mg/kg, iv; assay type: ADME, organism-based, Canis lupus familiaris; set-up: dose 0.5 mg/kg, time AUCmax, route intravenous; settings: in vivo
[37] = Protein binding in mouse plasma; assay type: ADME, cell-free; settings: read-out: PPB (converted)
[38] = fAUC (infinity) in rat at 1 mg/kg, iv or 5 mg/kg, po; assay type: ADME, organism-based; settings: in vivo

T1 sequence (O75874 2-414 R132C limits assumed): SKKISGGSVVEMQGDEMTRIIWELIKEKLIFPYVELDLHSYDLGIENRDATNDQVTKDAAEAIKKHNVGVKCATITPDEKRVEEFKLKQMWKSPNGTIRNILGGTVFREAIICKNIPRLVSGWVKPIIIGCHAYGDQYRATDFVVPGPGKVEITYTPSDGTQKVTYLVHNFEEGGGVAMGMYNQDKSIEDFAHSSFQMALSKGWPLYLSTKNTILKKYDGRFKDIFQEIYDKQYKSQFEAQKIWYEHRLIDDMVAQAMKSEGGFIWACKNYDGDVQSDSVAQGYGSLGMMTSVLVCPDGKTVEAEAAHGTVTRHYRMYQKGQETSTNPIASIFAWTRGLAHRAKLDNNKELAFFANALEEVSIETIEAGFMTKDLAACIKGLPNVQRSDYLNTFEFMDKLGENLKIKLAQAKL
Sequence of Isocitrate dehydrogenase [NADP] cytoplasmic (Homo sapiens, UniProt O75874, R132L) (O75874 2-414 R132L limits assumed): as the sequence (O75874 2-414 R132C limits assumed) above, with C131L counted along it
Sequence of Isocitrate dehydrogenase [NADP] cytoplasmic (Homo sapiens, UniProt O75874, R132G) (O75874 2-414 R132G limits assumed): as the sequence (O75874 2-414 R132C limits assumed) above, with C131G counted along it
Sequence of Isocitrate dehydrogenase [NADP] cytoplasmic (Homo sapiens, UniProt O75874, R132S) (O75874 2-414 R132S limits assumed): as the sequence (O75874 2-414 R132C limits assumed) above, with C131S counted along it

Compound: COc1nc(N[C@@H](C)c2cc3cc(Cl)c(OCC4CC4)cc3[nH]c2=O)ncc1C#N
- remaining at 0.5 h [1]: 100%
- IC50 [2]: 54 nM
- solubility kinetic [3]: < 0.1 µM
- IC50 [4]: 53 nM
- remaining at 0.5 h [5]: 100%

Compound: Cc1nc(N[C@@H](C)c2cc3cc(Cl)ccc3[nH]c2=O)ccc1C#N
- logD [6]: 3.74
- remaining at 0.5 h [1]: 98%
- IC50 [2]: 269 nM
- solubility kinetic [3]: 5.7 µM (≈ 1.93 µg/mL)
- IC50 [4]: 183 nM
- remaining at 0.5 h [7]: 94%

Compound: COc1nc(N[C@@H](C)c2cc3cc(Cl)c(F)cc3[nH]c2=O)ncc1C#N
- remaining at 0.5 h [1]: 89%
- IC50 [2]: 259 nM
- solubility kinetic [3]: 1.2 µM (≈ 0.449 µg/mL)
- IC50 [4]: 184 nM
- remaining at 0.5 h [5]: 100%

Compound: COc1nc(C#N)ccc1N[C@@H](C)c1cc2cc(Cl)ccc2[nH]c1=O
- logD [6]: 2.5
- remaining at 0.5 h [1]: 100%
- IC50 [2]: 338 nM
- solubility kinetic [3]: 4.8 µM (≈ 1.7 µg/mL)
- IC50 [4]: 1020 nM
- remaining at 0.5 h [7]: 60%

Compound: COc1nc(N[C@@H](C)c2cc3cc(Cl)ccc3[nH]c2=O)ccc1C#N
- logD [6]: 3.47
- remaining at 0.5 h [1]: 82%
- IC50 [2]: 92 nM
- solubility kinetic [3]: 0.08 µM (≈ 0.0284 µg/mL)
- IC50 [4]: 190 nM

Compound: N#Cc1ccnc(N2C(=O)CC[C@H]2C(=O)N(c2cncc(F)c2)[C@H](C(=O)NC2CC(F)(F)C2)c2ccccc2Cl)c1 [IVOSIDENIB]
- efflux ratio at 2 h, 10 µM [8]: > 350

Compound: COc1cc(N[C@@H](C)c2cc3cc(Cl)ccc3[nH]c2=O)ncc1C#N
- logD [6]: 3.38
- remaining at 0.5 h [1]: 100%
- solubility kinetic [3]: 15.6 µM (≈ 5.53 µg/mL)
- remaining at 0.5 h [7]: 100%

Compound: COc1cc2[nH]c(=O)c([C@H](C)Nc3ncc(C#N)c(OC)n3)cc2cc1Cl
- clearance [9]: 8.5 mL/min/kg
- logD [6]: 2.74
- remaining at 0.5 h [1]: 97%
- fraction unbound [10]: 0.0144
- IC50 [2]: 40 nM
- solubility kinetic [3]: 5.7 µM (≈ 2.2 µg/mL)
- clearance [11]: 4.3 mL/min/kg
- IC50 [4]: 36 nM
- Papp B→A [12]: 9.47 ×10⁻⁶ cm/s
- fraction unbound [13]: 0.0228
- fAUC [14]: 0.178 µM·h
- Papp [15]: 12.7 ×10⁻⁶ cm/s
- fraction unbound [16]: 0.0045
- Papp A→B [17]: 5.73 ×10⁻⁶ cm/s
- half-life [18]: 3.07 h
- half-life [19]: 2.6 h
- IC50 [20]: 5 nM
- remaining at 0.5 h [5]: 88%
- half-life [21]: 3.5 h
- AUC(0-inf) [22]: 21.5 µM·h
- CLint scaled [23]: 19.1 mL/min/kg
- AUC(0-inf) [24]: 10.7 µM·h
- bioavailability [25]: 75%
- half-life [26]: 6.2 h
- IC50 [27]: 129 nM
- Cmax [28]: 5.2 µM
- clearance [29]: 16.4 mL/min/kg
- IC50 [30]: 3 nM
- IC50 [31]: 4 nM
- fAUC [32]: 0.132 µM·h
- efflux ratio [33]: 1.65
- bioavailability [34]: 85%
- Cmax [35]: 1.9 µM
- AUC(0-inf) [36]: 5.8 µM·h
- fraction unbound [37]: 0.0083
- fAUC [38]: 0.043 µM·h

Compound: COc1nc(N[C@@H](C)c2cc3cc(Cl)c(OCc4ccccn4)cc3[nH]c2=O)ncc1C#N
- remaining at 0.5 h [1]: 97%
- IC50 [2]: 22 nM
- solubility kinetic [3]: 1.5 µM (≈ 0.694 µg/mL)
- IC50 [4]: 43 nM
- remaining at 0.5 h [5]: 77%

Compound: Cc1nc(NC(C)c2cc3cc(Cl)ccc3[nH]c2=O)ccc1C#N (racemic)
- remaining at 0.5 h [1]: 100%
- solubility kinetic [3]: 12.2 µM (≈ 4.13 µg/mL)
- IC50 [4]: 606 nM
- remaining at 0.5 h [7]: 96%
